In brackets after ≈: the same amount, converted by molar mass.
Key:
c-Myc = c-Myc expression in xenograft tumors; assay type: in vivo, mice; settings: FIG. 34 c-Myc/actin (PGG); FIG. 35 mRNA (F3-6 25 and 300 mpk)
Description: Please refer to FIGS. 34-35. FIG. 34 illustrates c-Myc/actin expression ratio in the tumor after treatments, wherein the numeral 1 is for the solvent, and the numeral 2 is for PGG. FIG. 35 illustrates c-Myc in RNA expression in the tumor after treatments, wherein the numeral 1 is for the solvent, the numeral 2 is for F3-6 (25 mpk), and the numeral 3 is for F3-6 (300 mpk).
RNA was prepared by using Tri Reagent (Sigma-Aldrich, St Louis, Mo., USA) and was reverse transcribed into cDNA using a Super Script II Reverse Transcriptase Kit (Invitrogen Inc., Carlsbad, Calif., USA).
PCR was performed on an ABI StepOne Plus System (Applied Biosystems, Foster City, Calif., USA) using the LightCycler® First Start DNA Master SYBR Green I reagent (Roche Diagnostics, Basel, Switzerland). The mRNA level was normalized using the TATA-box binding protein (TBP) mRNA level as the standard.
The following primers were used: GNMT forward, 5′-ACTGGATGACT CTGGACAA-3′ (SEQ ID NO. 3) and reverse, 5′-ACTGAGGATGTGGTCGT-3′(SEQ ID NO. 4); TBP forward, 5′-[…]-3′ (SEQ ID NO. 5) and reverse, 5′-[…]-3′(SEQ ID NO. 6); c-Myc forward, […](SEQ ID NO. 7) and reverse, […](SEQ ID NO. 8). […]

SK-HEP-1 cells = assay: alamarBlue cell viability, SK-HEP-1; assay type: cell-based, human
Source text: Next, we analyzed the effect of PGG on cell proliferation in different liver cancer cell lines, including Huh7, Hep3B (ATCC-No 8064), HepG2 (ATCC HB-8065), SK-HEP-1 (ATCC HTB-52), Mahlavu and HepG2 (ATCC HB-8065).
Please refer to FIG. 18, which illustrates the effect of PGG on cell proliferation in different liver cancer cell lines, wherein the numeral 1 denotes Huh7 cells, the numeral 2 denotes Hep3B cells, the numeral 3 denotes SK-HEP-1 cells, the numeral 4 denotes Mahlavu cells, and the numeral 5 denotes HepG2 cells. And cell viability was determined by the alamarBlue® viability assay. IC50 values of PGG in each cell line are shown as follows: Huh7 cells 0.03 mg/mL, Hep3B cells 0.07 mg/mL, SK-HEP-1 cells, Mahlavu cells and HepG2 0.10 mg/mL dose-dependent.
Human liver cancer cell lines Huh7, Hep G2, Hep 3B, SK-HEP-1, Mahlavu and embryonic kidney cell line HEK-293T all were cultured in Dulbecco's Modified Eagle's Medium (DMEM) (Gibco BRL, Grand Island, N.Y., USA) with 10% heat-inactivated fetal bovine serum (HyClone, Logan, Utah, USA), penicillin (100 U/mL), streptomycin ([…]), nonessential amino acids (0.1 mM/L) and L-glutamine (2 mM/L) in a humidified incubator with 5% CO2.

caspase 3/7 = assay: Caspase 3/7 activity assay; assay type: cell-based, human; settings: Huh7 cells, 12 hours
Description: Please refer to FIG. 24, which illustrates PGG induced caspase 3/7 activity in Huh7 cells.
Huh7 cells were plated in 96-well plate and treated with solvent or PGG for 12 h. To measure caspase-3 and caspase-7 activation, the Apo-ONE® Homogeneous Caspase-3/7 assay was performed according to the Promega Technical Bulletin-Apo-ONE® Homogeneous Caspase-3/7 assay.

Huh7 cells [1] = assay: Colony formation assay; assay type: cell-based, human; settings: 7 days
Description: For the colony assay, Huh7 cells were seeded. […] Numbers of surviving colonies were analyzed.

Huh7 cells [2] = assay: Apoptosis in Huh7 cells (Annexin V flow cytometry, cleaved caspase 3 immunoblot); assay type: cell-based, human
Description: Please refer to FIG. 22, which illustrates sub-G1 of cells in population. And flow cytometry analysis is done after 24 hours of PGG (0.1 mg/mL) treatment as illustrated in FIG. 22.
Please refer to FIG. 23, which illustrates fluorescence intensity in Annexin-V-positive cells among Huh7 cells.
In summary, administration of PGG to Huh7 cells can induce apoptosis.
Cells were harvested and fixed with cold 75% ethanol overnight and stained with propidium iodide (10 ug/mL) and RNase A (1 mg/mL) at 37 □ for 30 min. The cells were then analyzed by an Accuri C6 Flow cytometer (BD Biosciences, San Jose, Calif., USA). Cells were stained for Annexin V—APC Apoptosis Detection Kit according to the manufacturer's protocol (eBioscience, San Diego, Calif., USA).

GNMT promoter = assay: Dual luciferase GNMT promoter reporter assay in c-Myc knocked-out Huh7 cells; assay type: cell-based, human; settings: 0.1 mg/mL
Description: Huh7 cells were co-transfected with a GNMT promoter reporter plasmid, a thymidine kinase (TK) renilla luciferase plasmid, a shMyc plsmid or a shLacZ plasmid for 72 hours.
Evaluating whether the activity of GNMT promoter is damaged or not by knocking out the c-Myc gene and then administering with PGG, in order to confirm that the inhibition of the expression of c-Myc resulting in induced GNMT promoter due to PGG.
Please refer to FIG. 39, which illustrates overexpressions of PGG and c-Myc have influences on GNMT reporter, wherein the numeral 1 denotes the solvent, the numeral 2 denotes PGG, the numeral 3 denotes shLacZ, and the numeral 4 denotes shMyc.

O=C(OC[C@H]1O[C@@H](OC(=O)c2cc(O)c(O)c(O)c2)[C@H](OC(=O)c2cc(O)c(O)c(O)c2)[C@@H](OC(=O)c2cc(O)c(O)c(O)c2)[C@@H]1OC(=O)c1cc(O)c(O)c(O)c1)c1cc(O)c(O)c(O)c1 [PGG, 1,2,3,4,6-penta-O-galloyl-β-D-glucopyranoside]
expression of c-Myc in the tumor xenograft mice (c-Myc): lowers the expression of c-Myc
IC50 (SK-HEP-1 cells): 100 µg/mL (≈ 106 µM)
increase in caspase 3/7 activity (caspase 3/7): five-fold
inhibition of colony formation (Huh7 cells [1]; 0.05 mg/ml or higher): 95%
formation of Huh7 cell populations (colonies), dose dependence (Huh7 cells [1]): dose-dependent manner
apoptosis (Annexin V staining) (Huh7 cells [2]): significantly induce apoptosis
level of cleaved caspase 3 (immunoblot) (Huh7 cells [2]): increased the level of cleaved caspase 3 in a dose-dependent manner
GNMT promoter induction in cells knocked out c-Myc (shMyc vs shLacZ) (GNMT promoter): drop

Reference: patent US11000535B2, “Anticancer composition and use thereof” (KAOHSIUNG MEDICAL UNIVERSITY, priority 2015, dated 2021)
